Assay results as given in US10376558B2, “Method and compositions for synchronizing time of insemination in gilts” (UNITED-AH II, LLC, priority 2012, dated 2019).

Tests used:
Type in all cases: in vivo, swine
LH = assay: Example 5: serum LH surge after triptorelin gel (jugular blood sampling); conditions: for Magnitude of LH surge: maximum serum LH concentration; for Onset of LH surge / Time of maximum LH conc.: relative to time of triptorelin gel treatment; for Time of maximum LH conc.: in h (unit assumed); for Gilts, which displayed a LH surge: number of gilts
Protocol: All gilts were individually fed MATRIX® as a top-dress for 14 or 15 days at the recommended rate of 15 mg/gilt/day. Gilts were withdrawn from MATRIX® feeding (last top-dress in the morning on Day 0) and allocated to each of the following treatments. Controls were vehicle gel treated (vehicle gel without triptorelin) at 120 (+/−2) hours following MATRIX® withdrawal (last top dress). The other gilts were given 100, 200 or 400 mcg triptorelin as the acetate in a methylcellulose gel formulation 120 (+/−2) hours following MATRIX® withdrawal. The four treatments were:
A catheter was inserted non-surgically into the jugular vein (Kraeling et al. 1982) of a subpopulation of gilts in each treatment group (vehicle gel, n=8; 100 mcg triptorelin, n=6; 200 mcg triptorelin, n=7 and 400 mcg triptorelin, n=6). Ten mL blood samples were collected every 15 minutes for one hour prior to treatment, immediately following treatment (0) and at 0.5, 1, 2, 4, 6, 12, 18, 24, 36 and 48 hours after treatment. Blood samples were maintained at 4° C. until centrifuged at 800×g for 15 minutes within 12 hours of collection. The resulting serum was stored frozen until assayed for LH using validated procedures for pig serum (Kesner et al., 1987 and Kraeling et al., 1982). Onset, duration, and magnitude of the LH surge were analyzed. The LH data were analyzed with the General Linear Models procedure of SAS. Differences between treatments were tested on least squares means estimates using the T test at P<0.05. Onset of the LH surge is when serum LH concentration is greater than or equal to two standard deviations of the mean of the pre-treatment serum LH concentrations. Duration of the LH surge is the period between onset and when serum LH concentration is again less than or equal to two standard deviations of the mean of the pre-treatment serum LH concentrations. Magnitude of the LH surge is the maximum serum LH concentration reached during the LH surge.
(§1) A single 2 mL dose of triptorelin gel or vehicle gel was deposited within approximately 1-2 cm posterior to the cervix with a catheter similar to those used for artificial insemination. The dose was delivered using a standard multi-dose applicator attached to the catheter. A new disposable sheath, which surrounds the catheter, was used for each gilt.

gilts [1] = assay: Example 5: ovulation monitoring by transrectal ultrasonography after 100, 200 or 400 mcg triptorelin gel at 120 h post-MATRIX; conditions: 400 mcg T (n = 6 catheterized gilts)
gilts [2] = assay: Example 1: ovulation monitoring by transrectal ultrasonography after triptorelin gel at 96, 120 or 144 h after last MATRIX feeding; conditions: raw average, PTK 1-07 (rep 3); for % of Sows Ovulating: 200 mcg T at 120 h
Protocol: All gilts were individually fed MATRIX® as a top-dress for 14 days at the recommended rate of 15 mg/gilt/day. Gilts were withdrawn from MATRIX® feeding (last top feed in the morning on Day 0) and allotted to treatments. Controls were treated with a 1.2% methylcellulose gel formulation without triptorelin at 96 hours following MATRIX® withdrawal (last top-dress). The remaining gilts received 200 mcg triptorelin, as the acetate, in a 1.2% methylcellulose gel formulation intravaginally at various times after MATRIX® withdrawal. The four treatments were: 1) vehicle gel (VG) treatment at 96 hours after MATRIX® withdrawal, 2) triptorelin gel (TG) treatment at 96 hours after MATRIX® withdrawal, 3) TG treatment at 120 hours after MATRIX® withdrawal and 4) TG treatment at 144 hours after MATRIX® withdrawal. All gilts were monitored for their estrous and ovulatory status as described below. Gilts included in replicate 1 were selected from terminal line commercial production gilts located in grow/finish barns. Sexual maturity, as indicated by one or more estrous periods, was not verified prior to the start of MATRIX® feeding. Gilts included in replicate 2 were selected from a maternal line gilt population. Sexual maturity was verified by at least one estrous period verified and recorded prior to starting MATRIX® feeding.
The ovulatory status of all gilts was monitored by transrectal ultrasonography. For replicate one, ovulation was monitored two times on Day 5, then three times a day from Day 6 to Day 8. For replicate two, ovulation was monitored three times a day from Day 5 to Day 8. An Aloka 500 ultrasound machine with a 7.5 MHz linear array transducer attached to a fixed-angle PVC stabilizing rod to facilitate insertion into the rectum was used for this purpose. The transducer and PVC rod were coated with a gynecological lubricant and gently inserted into the rectum until the ovaries were visualized, one at a time. The diameters of the three largest follicles were recorded (to the nearest 0.1 mm) at each scanning. A gilt was declared to have ovulated when the number of large follicles (≥6.5 mm) fell to less than 3.
as §1
Data were analyzed using the Mixed Models procedures of SAS. Models included main effects of time of treatment following the last feeding of MATRIX®, replicate, and treatment by replicate interaction. Differences between treatments were tested on least squares means estimates using the T test at P<0.05. Data for analysis were tested for assumptions of data normality.

[3] = 100 mcg T (n = 6), Least Squares Mean ± SE
[4] = 200 mcg T (n = 7), Least Squares Mean
[5] = 400 mcg T (n = 6), Least Squares Mean ± SE

**Q.** Which results are given for `CC(C)C[C@H](NC(=O)[C@@H](Cc1c[nH]c2ccccc12)NC(=O)[C@H](Cc1ccc(O)cc1)NC(=O)[C@H](CO)NC(=O)[C@H](Cc1c[nH]c2ccccc12)NC(=O)[C@H](Cc1c[nH]cn1)NC(=O)[C@@H]1CCC(=O)N1)C(=O)N[C@@H](CCCNC(=N)N)C(=O)N1CCC[C@H]1C(=O)NCC(N)=O` [T, pGlu-His-Trp-Ser-Tyr-D-Trp-Leu-Arg-Pro-Gly-NH2]?
**A.** Duration of LH surge (LH; [3]): 19 ± 2; Magnitude of LH surge (LH; [3]): 3.94 ± 1.22; Onset of LH surge (LH; [3]): 4 ± 3; Time of maximum LH conc. (LH; [3]): 11 ± 7; Gilts, which displayed a LH surge (LH; 100 mcg T in gel at 120 h post-MATRIX (n = 6 catheterized gilts)): 4; Duration of LH surge (LH; [4]): 18; Magnitude of LH surge (LH; [4]): 8.98; Onset of LH surge (LH; [4]): 0.5; Time of maximum LH conc. (LH; [4]): 4; Gilts, which displayed a LH surge (LH; 200 mcg T in gel at 120 h post-MATRIX (n = 7 catheterized gilts)): 1; Duration of LH surge (LH; [5]): 17 ± 4; Magnitude of LH surge (LH; [5]): 11.65 ± 12.35; Onset of LH surge (LH; [5]): 4 ± 4; Time of maximum LH conc. (LH; [5]): 12 ± 4; Gilts, which displayed a LH surge (LH; 400 mcg T in gel at 120 h post-MATRIX (n = 6 catheterized gilts)): 5; Percentage ovulated by 48 hours (gilts [1]; after treatment): 100%; Time at which ovulation detected (gilts [1]; relative to time of triptorelin gel treatment, Least Squares Mean ± SE): 40 ± 8 h; % of Sows Ovulating (gilts [2]; 128 h post-MATRIX, 8 h post-T): 0.0%; % of Sows Ovulating (gilts [2]; 136 h post-MATRIX, 16 h post-T): 10.0%; % of Sows Ovulating (gilts [2]; 144 h post-MATRIX, 24 h post-T): 30.0%; % of Sows Ovulating (gilts [2]; 152 h post-MATRIX, 32 h post-T): 70.0%; % of Sows Ovulating (gilts [2]; 160 h post-MATRIX, 40 h post-T): 80.0%; % of Sows Ovulating (gilts [2]; 168 h post-MATRIX, 48 h post-T): 90.0%; % of Sows Ovulating (gilts [2]; 176 h post-MATRIX, 56 h post-T): 100.0%; Interval from MATRIX Withdrawal to Ovulation (gilts [2]; 200 mcg T at 120 h after MATRIX withdrawal): 153.6
